The values that follow are results of earlier work, collected in patent US20060193787A1, “Nanoparticle-based drug delivery system” (priority 2005, published 2006).

For this data set the following is noted: oral delivery.

Consider `CC(=O)O[C@H]1C(=O)[C@@]2(C)[C@H]([C@H](OC(=O)c3ccccc3)[C@]3(O)C[C@H](OC(=O)[C@H](O)[C@@H](NC(=O)c4ccccc4)c4ccccc4)C(C)=C1C3(C)C)[C@]1(OC(C)=O)CO[C@@H]1C[C@@H]2O` [paclitaxel], for which the Bioavailability entry is “less than 1%”.
